Test results: patent US20090181115A1, “Method of Screening for Compounds That Alter Skin and/or Hair Pigmentation” (priority 2006, published 2009)
Entries after “also recorded” stand apart in the source; their conditions may differ.

Tests used:
[1] = test system: NCKX5; assay: Western blot of NCKX5 protein 5 days after siRNA mediated knockdown; format: cell-based, human; conditions: 5 days after siRNA knockdown, rabbit anti-NCKX5 pAb (anti C-terminus peptide)
Procedure: Using western blot we have investigated NCKX5 protein expression 5 days after siRNA mediated knockdown (all 5 siRNA duplexes and controls were tested). Western blot was also used to evaluate the expression and processing (maturation) of tyrosinase (tyr) in the same samples. SDS-PAGE (10% PA for NCKX5, 4-12% for tyr, 5 μg protein/lane). A) Western blot for NCKX5: Detection via rabbit anti-NCKX5 pAb (anti C-terminus peptide). B) Western blot for tyr, via goat pAb (Santa Cruz). 1=No treatment, 2=scrambled siRNA control, 3-7=siRNA's 185, 260, 301, 492, 1110. […] These bands are absent in the samples where SLC24A5-specific duplexes were used (lanes 3-7). It is possible that the doublet represents the presence of alternate SLC24A5 splice variants.
(§1) • Cultured Cells (trypsinised off of 6-well culture plates) were lysed on ice for 20 minutes in 1.5 ml eppendorfs using 100 μl per sample of 1% triton X-100 in dPBS containing protease inhibitor cocktail (Sigma-Aldrich, Poole, UK). Cell extracts were centrifuged (10 minutes at 13000 g) to separate melanin and cell debris from the solubilised protein. The protein concentration of each supernatant fraction was determined by BCA assay as described in A).
• 20 μg protein (as determined by BCA assay) was reconstituted into 20 μl of 1×LDS loading buffer (Invitrogen Ltd, Paisley, UK) containing 1× reducing agent (Invitrogen Ltd, Paisley, UK), heated to 40° C. for 30 minutes and loaded onto 10% Novex bis-tris acrylamide gels with 1×MOPS running buffer (Invitrogen Ltd, Paisley, UK). Kaleidoscope molecular weight markers (Bio-Rad Laboratories Ltd, Hemel Hempstead, UK) were run alongside samples for size determinations. Protein was transferred onto PVDF membrane by electrophoresis transfer, using a Bio-Rad mini-cell II trans-blotter and 1× Tris-Glycine transfer buffer (Invitrogen Ltd, Paisley, UK)+15% v/v methanol (100V for 1 hour).
• Membranes containing transferred protein were “blocked” using 2% w/v skimmed milk protein (SMP) in PBS+0.05% tween20 (PBST) for 1 hour with gentle agitation. Peptide affinity purified rabbit polyclonal antibody (raised using a peptide equivalent to the C-terminus of NCKX5-GNNKIRGCGG) was diluted to 0.5 μg/ml using 2% SMP in PBST. The diluted antibody was incubated with the membrane for 2 hours at room temperature. The membrane was then rinsed with PBST (4×5 minutes washes). Peroxidase conjugated anti-rabbit IgG (Jackson ImmunoResearch Laboratories Inc. PA, USA) was diluted 1/4000 using 2% SMP in PBST and was incubated with the membranes for 1 hour. Finally, membranes were washed using 6×5 minute rinses with PBST. SuperSignal Western pico (Perbio Science UK Ltd, Northumberland, UK) chemiluminescence detection reagents was used to probe the membranes for secondary antibody binding as per the manufacturers instructions. Visualisation of results was via a Chemidoc XRS imaging system (Bio-Rad Laboratories Ltd, Hemel Hempstead, UK).

[2] = test system: lightly pigmented human melanocytes; assay: Quantitative assessment of melanogenesis (melanin content) after siRNA knockdown in human melanocytes; format: cell-based; conditions: replicated x3
Procedure: A decrease in post-treatment melanin content is noted for duplex (492) in lightly pigmented human melanocytes (replicated ×3).
as §1
• To each pellet of melanin+cell debris obtained in section 2), 0.5 ml of diethyl ether:ethanol (1:1 ratio) was added. Eppendorfs were vortexed vigorously for 30 seconds and centrifuged at 13000 g for 5 minutes. The ether layer was carefully removed to waste and a further 0.5 ml was added. The tubes were agitated and centrifuged as before. The liquid phase was again removed and the melanin pellets were allowed to air dry at room temperature for 10 minutes. […] OD^45 0 of each sample was determined and the melanin content of each fraction was calculated from a synthetic melanin standard curve, prepared as described above. In treatment comparisons, results were expressed as μg melanin per μg protein. […]

[3] = test system: B16 cells; assay: Cell viability of B16 cells after siRNA treatment (Wst1 assay); format: cell-based, mouse; conditions: end of each experiment
Procedure: (§2) Media was removed and melanin quantified by OD450. Cell viability measured using Wst1 proliferation reagent (Roche) before lysis using 1% triton ×100. Protein content of each well was determined by BCA assay.
Cell viability and protein content determination post-treatment could help to identify the manner in which SLC24A5 modulates pigment production in B16 melanocytes. […] This conclusion is supported by data obtained for protein content.
• The phenol free DMEM culture media was removed from each well for quantification of secreted melanin. Each well of the culture plate was then rinsed once with Dulbeccos phosphate buffered saline (dPBS) (Sigma-Aldrich, Poole, UK) and replaced with 0.5 ml Wst1 reagent (diluted 1/10 in media) (Roche Diagnostics Ltd, West Sussex, UK). The culture plate was incubated at 37° C., 5% CO2 for 30 minutes. The Wst1 reagent was removed from each well for determination of cell viability and each well was again rinsed with dPBS. 200 μl of 1% w/v Triton X-100 (Sigma-Aldrich, Poole, UK) in dPBS was added to each well of the culture plate. The plate was incubated for 20 minutes at 4° C. on an orbital shaker. Supernatant from each well was removed and centrifuged at 13000 g for 5 minutes to remove cell debris. Soluble fractions were kept for protein quantification.
• The OD^450 of 100 μl fractions (measured in duplicate) of post-incubation Wst1 reagent was measured. […]

[4] = test system: B16 cells; assay: Melanin synthesis in B16 cells after SLC24A5 siRNA knockdown (OD450 of media); format: cell-based, mouse; conditions: transfected 8 hours, cultured a further 3 days
Procedure: Cells were transfected (lipofectamine 2000) with siRNA duplexes or controls for 8 hours. Cells were cultured for a further 3 days prior to analyses.
as §2
Experiment (each in quadruplicate) reproduced x3 consecutively.
24 h prior to transfection, B16 cells were plated at 25,000 cells/well in a 48-well plate. Cells in quadruplicate wells were transfected with 2 μg/ml Lipofectamine 2000 and 50 nM Stealth™ RNAi duplexes targeting SLC24A5 or scrambled controls (from Invitrogen). […]
Cells were incubated with transfection reagents for 6-8 h, reagents were then removed and replaced with phenol red-free DMEM supplemented with 10% FCS and 4 mM L-glutamine for 72 h. At 72 h, cells were taken for viability and total protein determination and supernatants analysed for melanin production.
• The phenol free DMEM culture media was removed from each well for quantification of secreted melanin. […] Soluble fractions were kept for protein quantification.
• 1 mg synthetic melanin (Sigma-Aldrich, Poole, UK) was dissolved in 50 μl of 100% DMSO. […] This standard was serially diluted (5-fold) in media+FCS to give a standard curve for quantification of melanin in sample preparations (range from 1000 to 8 μg/ml). […]

duplex 185: Stealth siRNA duplex against human SLC24A5, exon 1 & 2 boundary; 5′ AGGGCCACAGGAAATAGCACCCAAT 3′ (antisense ATTGGGTGCTATTTCCTGTGGCCCT; Stealth chemically modified siRNA duplex, pattern not given here)
NCKX5 bands of approx. 42 and 44 KDa on western blot [1]: absent

duplex 260: Stealth siRNA duplex against human SLC24A5, exon 2; 5′ GAGCGCAGAGATGGAGGCATCATAA 3′ (antisense TTATGATGCCTCCATCTCTGCGCTC; Stealth chemically modified siRNA duplex, pattern not given here)
NCKX5 bands of approx. 42 and 44 KDa on western blot [1]: absent

duplex 301: Stealth siRNA duplex against human SLC24A5, exon 2; 5′ CGTTTACATGTTCATGGCCATATCT 3′ (antisense AGATATGGCCATGAACATGTAAACG; Stealth chemically modified siRNA duplex, pattern not given here)
NCKX5 bands of approx. 42 and 44 KDa on western blot [1]: absent

duplex 492: Stealth siRNA duplex against human SLC24A5, exon 3 & 4 boundary; 5′ GCACCATCCTTGGATCTGCAATTTA 3′ (antisense TAAATTGCAGATCCAAGGATGGTGC; Stealth chemically modified siRNA duplex, pattern not given here)
post-treatment melanin content [2]: decrease | NCKX5 bands of approx. 42 and 44 KDa on western blot [1]: absent

duplex 567: Stealth RNAi duplex targeting murine SLC24A5; sense 5′-CCUCUUCCGAGACUGUGCAGUGUAU-3′ (antisense GGAGAAGGCUCUGACACGUCACAUA; Stealth chemically modified RNAi duplex, pattern not given here; one strand is listed 3' to 5')
cell viability / toxicity [3]: significant toxicity | melanin synthesis / pigment production [4]: visibly decreased

duplex 762: Stealth RNAi duplex targeting murine SLC24A5; sense 5′-CAGAGCUAUGGAGGAGAGAAUUGAA-3′ (antisense GUCUCGAUACCUCCUCUCUUAACUU; Stealth chemically modified RNAi duplex, pattern not given here; one strand is listed 3' to 5')
cell viability / toxicity [3]: without affecting viability | melanin synthesis / pigment production ([4]; listed as 762): visibly decreased; also recorded: reduce pigment production

duplex 1110: Stealth siRNA duplex against human SLC24A5, exon 7; 5′ CCGCATTTACATATATCCTGGTTTG 3′ (antisense CAAACCAGGATATATGTAAATGCGG; Stealth chemically modified siRNA duplex, pattern not given here)
NCKX5 bands of approx. 42 and 44 KDa on western blot [1]: absent
